This note sets out measurements from paper PMC7728344, “Pharmacokinetic Characterization of (Poly)phenolic Metabolites in Human Plasma and Urine after Acute and Short-Term Daily Consumption of Mango Pulp” (Molecules, 2020).

Read-outs that look alike come from different tables or passages of the source.

A short description of data set [1]: Concentration of (poly)phenolic metabolites in fasting urine at baseline, 24 h after single MP beverage and 15th day after 14-day MP intake (UHPLC-QQQ-MS). As to conditions: human, urine, oral. From the text:
The acute trial was a randomized, 3 arm, within-subject crossover study design (Figure 5A). The trial initiated with 3 days of food record collection to assess background (pre-study) dietary intake followed by counseling to adhere to a diet devoid of mango or its parts and relatively low in polyphenol-rich beverages/foods, which was maintained throughout the duration of the trial. […] In general, subjects were encouraged to follow their “usual” diet with the exception of foods/beverages that may interfere with the outcomes of the study. Food intake diaries and, phone call and email reminders helped subjects maintain compliance throughout the study period. After an initial 7-day run-in period on the limited polyphenol diet, subjects were assigned to a randomization sequence providing 1 of 3 study test beverages (recipes provided in Appendix A, Table A3) on three separate days in a random order: MP (500 g), MP (500 g) + VC (100 mg) or VC (100 mg) beverages. On each study day subjects arrived fasted and well hydrated. After standard admission procedures were completed (e.g., review of compliance with dietary requirements for 3 days prior to study day, dinner meal intake, usual sleep patterns), a catheter was placed by a registered nurse in subjects’ non-dominant arm and a fasting/baseline blood sample was collected (0 h). Subjects were provided with a standard breakfast meal 2 h after the study beverages. The breakfast meal was comprised of a buttermilk biscuit with butter and jelly, and scrambled egg white with shredded white cheddar cheese. After the 6 h blood collection, subjects ate a low polyphenol lunch consisting of dry roasted peanuts and fresh peeled cucumber with ranch dressing (Appendix A, Table A3).
Spot urine samples were collected in urine collection cups, immediately placed on ice and then aliquoted into individual cryovials. All the samples were stored at −80 °C until analysis.
A 14-day feeding trial was conducted with the MP only to study the effect of repetitive intake of MP on (poly)phenolic metabolite profiles. Upon completion of the acute trial, subjects were instructed to continue on the low polyphenolic diet for 2 weeks while consuming MP beverages (provided by CNRC) daily in the morning (250 g MP + 50 g water) and evening (250 g MP + 50 g water). On day 14, subjects consumed both beverages (500 g of MP in total) in the morning and reported to the CNRC on the 15th day after an overnight fast to provide a fasting blood and urine sample (Figure 5B). Blood and urine samples were collected as described above and stored at −80 °C until analysis.
The supernatant was collected and filtered through 0.2 µm polypropylene syringe filter before HPLC analysis.
The ESI conditions were the same as those used in the UHPLC-Q-TOF analysis. The quantification of the compounds was conducted by multiple-reaction monitoring (MRM) transitions. Spectra were recorded in both positive- and negative-ion mode with capillary voltage of 4500 V and drying gas flow rate of 9 L/min at 200 °C. The sheath gas temperature and flow rate were 300 °C and 11 L/min, respectively. Standards were optimized for collision energies, fragmentor voltages and MRM transitions using Mass Hunter Optimizer. The MRM transition for metabolites were created based on the results from UHPLC-Q-TOF-MS. Standards for plasma analysis were prepared in blank plasma (charcoal-stripped human plasma obtained from Bioreclamation IVT) for matrix match and for urine analysis were prepared in SMP.
The flow rate was maintained at 0.4 mL/min and the injection volume was 5 μL. The mobile phase consisted of acidified water (0.1% formic acid) (A) and acidified acetonitrile (0.1% formic acid) (B). The gradient for the separation of compounds was as follows: 5 to 5% B from 0 to 1 min; 10% B at 3 min; 15% B at 7 min; 15% B at 9 min; 20% B at 10 min; 20% B at 11 min; 25% B at 12 min; 30% B at 13 min; 30% B at 14 min; 95% B at 15 min; and back to 5% B at 16 min.

A further data set can be described thus: clinical. Type of data set: in vivo, human. The arrangement: AUC0–24h: concentration or dose not given beside the values. As to conditions: for AUC(0-t): read-out: AUC0–24h. The method, then:
SPE procedure was conducted to extract and concentrate the (poly)phenolic compounds and their metabolites from the plasma samples. Briefly, plasma samples were thawed on ice and 500 µL plasma was diluted with 1.5 mL of 0.1% formic acid in water with addition of internal standards (2-methylhippuric acid (2 ng/mL), phloridizin (1 ng/mL)) before being loaded on preconditioned SPE cartridges. The cartridges were washed with 0.1% formic acid in water (1 mL) after loading with plasma samples. The elution of the compounds was achieved by 0.1% formic acid in methanol (1 mL) and the eluent was dried under nitrogen gas at room temperature. […] Supernatant was collected in amber HPLC vials before analysis.
The absorption and elimination of 11 major mango metabolites over 24 h was determined after MP, MP + VC, and VC intake. The plasma concentration/area at each time point was determined by the mean of 13 subjects. The time vs. concentration curves and the time vs. area curves were created using GraphPad Prism (version 8.2.1). […] Tmax is the time (h) when Cmax was achieved. Wilcoxon signed-rank test was used for Tmax analysis due to non-normal distribution. Area under the plasma concentration time curve (AUC0−24h, nmol·h/L) was calculated by the linear trapezoidal method using Microsoft Excel 2013, version 15 [63]. […]

The mark [2] stands for this setting: human plasma, 0−24 h, after VC (vitamin C 100 mg) beverage, mean ± standard error, read-out: Cmax.
[3] abbreviates: human plasma, after VC beverage, mean ± standard error.

In general, Tmax refers to the time from dosing to the highest level. The Cmax is the maximum level reached in the sampled fluid or tissue. Consider `O=C(O)c1cc(O)c(O)c(O)c1` [Compound C1, gallic acid], for which the concentration at 15 day in data set [1] is 100 nM. For the same compound, the concentration at 0 h in data set [1] (500 g) worked out at 200 nM. The concentration at 24 h in data set [1] (500 g) is 200 nM. The “time within which absorbed” value in the data set “clinical” (after acute mango intake) was 1 to 2 h. Moreover, the “difference in plasma concentrations/areas after MP + VC beverage compared to MP beverage alone” value in the data set “clinical” (increase observed, statistical outcome) was “not statistically significant”. Moreover, the AUC(0-t) was 0.0249 ± 0.0019 µM·h in the data set “clinical” (oral, 100 mg, human plasma, after VC beverage, mean ± standard error); 0.0645 ± 0.0078 µM·h in the data set “clinical” (oral, 500 g, human plasma, after MP beverage, linear trapezoidal method, mean ± standard error); 0.0628 ± 0.0069 µM·h in the data set “clinical” (oral, human plasma, after MP + VC beverage, mean ± standard error). Moreover, the Tmax in “clinical” (oral, 500 g, human plasma, after MP beverage, mean ± standard error, read-out: Tmax) is 2.2 ± 0.4 h; in “clinical” (oral, human plasma, after MP + VC beverage, mean ± standard error, read-out: Tmax), 2 ± 0.3 h. Moreover, the Cmax in the data set “clinical” (oral, human plasma, 0−24 h, after MP (mango pulp 500 g) beverage, mean ± standard error, n = 13, read-out: Cmax) worked out at 20.4 ± 3.1 nM; in the data set “clinical” (oral, human plasma, 0−24 h, after MP + VC (mango pulp 500 g + vitamin C 100 mg) beverage, mean ± standard error, read-out: Cmax), 21.1 ± 3.9 nM; in “clinical” (oral, human plasma, 0−24 h, after VC (vitamin C 100 mg) beverage, mean ± standard error, read-out: Cmax), 5.3 ± 1.3 nM.

Turning to methylgallic acid [Compound C3], the peak concentration (Cmax) in the data set “clinical” (setting [2]) was determined as 4.8 ± 0.7 nM. Moreover, the “AUC0–24h” value in the data set “clinical” (setting [3]) turned out to be 0.0259 ± 0.0019 µM·h. In the data set “clinical” (human, in vivo), the “AUC0–24h” value was found to be 0.1611 ± 0.0136 µM·h, the highest level (Cmax) was 54.5 ± 4.9 nM and the Tmax is listed as 2.2 ± 0.3 h. In addition, the “difference in plasma concentrations/areas after MP + VC beverage compared to MP beverage alone” value in the data set “clinical” (in vivo) is “not statistically significant”.

With methylgallic acid sulfate [Compound C4], the Cmax in the data set “clinical” (setting [2]) was found to be 6.3 ± 1.6 nM. Moreover, the “AUC0–24h” value in “clinical” (setting [3]) is 0.0247 ± 0.003 µM·h. Further, in “clinical” (human, in vivo), the “AUC0–24h” value is 1.6558 ± 0.274 µM·h, the concentration peaked (Cmax) at 824 ± 131 nM and the Tmax turned out to be 2.2 ± 0.2 h. Moreover, the “difference in plasma concentrations/areas after MP + VC beverage compared to MP beverage alone” value in “clinical” (in vivo) was “not statistically significant”.

With “methylpyrogallol glucuronide [Compound C9]”, the Tmax in the data set “clinical” (setting [3]) is listed as 8.0 ± 2.3 h.

For “methylpyrogallol sulfate isomer 1 [Compound C6]”, the Cmax in “clinical” (setting [2]) was found to be 35.8 ± 9.5 nM. Besides, in “clinical” (setting [3]), the “AUC0–24h” value was determined as 0.1295 ± 0.036 µM·h.

In the case of “methylpyrogallol sulfate isomer 2 [Compound C7]”, the Cmax in “clinical” (setting [2]) is 76.6 ± 24.9 nM. Also, the “AUC0–24h” value in “clinical” (setting [3]) worked out at 0.2166 ± 0.0545 µM·h.
